Experiments:
Type in all cases: biochemical
[1] = tested on: L-acylase from Aspergillus oryzae; assay: L-acylase activity assay, producing L-Met from Moc-L-Met; conditions: Moc-L-Met 25 mM, Tris/HCl 50 mM pH 8.0, cobalt chloride 6 mM, L-Acylase 2.0 U, final volume 200 μL; L-Met detected by RP HPLC
Description: Moc-L-Met was used in an assay to determine the activity of the L-acylase from Aspergillus oryzae. A. Producing L-Met from Moc-L-Met [table] D-Met and L-Met were detected by reverse phase HPLC (RP 18). The unit data for the enzymes refer to specific activity with N-Ac-L-Met and N-Ac-D-Met as substrate.

[2] = tested on: D-acylase from Aspergillus oryzae in the presence of an N-acetylamino acid racemase (AAR) from Amycolatopsis orientalis subsp. lurida; assay: D-acylase activity assay in the presence of AAR, producing D-Met from Moc-L-Met; conditions: Moc-L-Met 25 mM, Tris/HCl 50 mM pH 8.0, cobalt chloride 6 mM, D-Acylase 2.4 U, AAR 0.4 U, final volume 200 μL; D-Met detected by RP HPLC
Description: B. Producing D-Met from Moc-L-Met Moc-L-Met was used in an assay to determine the activity of the D-acylase from Aspergillus oryzae in the presence of an N-acetylamino acid racemase (AAR) from Amycolatopsis orientalis subsp. lurida. [table] D-Met and L-Met were detected by reverse phase HPLC (RP 18). The unit data for the enzymes refer to specific activity with N-Ac-L-Met and N-Ac-D-Met as substrate.

[3] = tested on: N-acetylamino acid racemase (AAR) from Amycolatopsis orientalis subsp. lurida; assay: Racemase activity assay of recombinant N-acetylamino acid racemase (polarimeter); conditions: substrate 25 mM, Tris/HCl 50 mM pH 8.0, cobalt chloride 6 mM, ca. 150 μg AAR, 30° C., 3 to 12 hours, λ=365 nm
Procedure: Detection of the racemase activity of a recombinant N-acetylamino acid racemase AAR enzyme The substrate spectrum of the N-acetylamino acid racemase (AAR) from Amycolatopsis orientalis subsp. lurida was tested with the enzyme assay described herein below. The composition of the assay was as follows: [table] Enantiomer-pure amino acid derivatives were used in the assay and the formation of the corresponding racemate was followed using a polarimeter (Perkin-Elmer 241). The incubation was carried out at 30° C. (heatable cell) for 3 to 12 hours. The measurements were made at a wavelength of λ=365 nm.

Question: With COC(=O)N[C@@H](CCSC)C(=O)O [N-methyloxycarbonyl-L-Met] as the molecule, how does the Volume activity [1] read?
Answer: 1.4 U/ml

Question: What about the Volume activity [2] of the same molecule?
Answer: 0.6 U/ml

Question: What about the “Specific Activity of the AAR” value [3] of the same molecule?
Answer: 42 mU/mg
